# In patent publication US20040038428A1, “Protein microarrays” (priority 2000, published 2004):
# No end group written: not given here.
# T1: p50 (of the NFκB complex) (Homo sapiens, UniProt P19838)
# T1 construct: p50 (of the NFκB complex) and IκBα
# T1 sequence (P19838 1-433 limits assumed): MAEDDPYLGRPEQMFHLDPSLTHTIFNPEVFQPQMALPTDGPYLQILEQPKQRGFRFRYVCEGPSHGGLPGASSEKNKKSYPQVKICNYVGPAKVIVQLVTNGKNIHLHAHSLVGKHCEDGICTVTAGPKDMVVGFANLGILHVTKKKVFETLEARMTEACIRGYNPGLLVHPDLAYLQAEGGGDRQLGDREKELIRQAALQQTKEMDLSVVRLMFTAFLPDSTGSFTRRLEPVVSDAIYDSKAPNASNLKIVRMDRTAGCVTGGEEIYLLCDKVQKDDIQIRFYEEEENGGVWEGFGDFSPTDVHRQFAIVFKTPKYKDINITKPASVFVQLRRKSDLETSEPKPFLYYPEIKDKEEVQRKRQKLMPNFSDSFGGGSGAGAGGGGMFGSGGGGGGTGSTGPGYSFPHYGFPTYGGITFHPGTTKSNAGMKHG
# B1: Cy3-conjugated IκBα: IκBα labeled with Cy3 (protein, UniProt P25963 1-317, looked up)
# NF-kappa-B inhibitor alpha: MFQAAERPQEWAMEGPRDGLKKERLLDDRHDSGLDSMKDEEYEQMVKELQEIRLEPQEVPRGSEPWKQQLTEDGDSFLHLAIIHEEKALTMEVIRQVKGDLAFLNFQNNLQQTPLHLAVITNQPEIAEALLGAGCDPELRDFRGNTPLHLACEQGCLASVGVLTQSCTTPHLHSILKATNYNGHTCLHLASIHGYLGIVELLVSLGADVNAQEPCNGRTALHLAVDLQNPDLVSLLLKCGADVNRVTYQGYSPYQLTWGRPSTRIQQQLGQLTLENLQMLPESEDEESYDTESEFTEFTEDELPYDDCVFGGQRLTL
# modifications: Cy3 label
# B2: I-2: protein phosphatase inhibitor 2, substrate of casein kinase II (protein, UniProt P41236 2-205, looked up)
# Protein phosphatase inhibitor …: AASTASHRPIKGILKNKTSTTSSMVASAEQPRGNVDEELSKKSQKWDEMNILATYHPADKDYGLMKIDEPSTPYHSMMGDDEDACSDTEATEAMAPDILARKLAAAEGLEPKYRIQEQESSGEEDSDLSPEEREKKRQFEMKRKLHYNEGLNIKLARQLISKDLHDDDEDEEMLETADGESMNTEESNQGSTPSDQQQNKLRSS
# Tests used:
# [1] = molecular target: FKBP12 (Homo sapiens, UniProt P62942); settings: read-out: dissociation constants for FKBP12; cited from earlier work
# [2] = molecular target: T2, p42 MAP kinase (Erk2) (Mus musculus, UniProt P63085); assay: kinase substrate screen on BSA-NHS slides with 33P-γ-ATP, Erk2; assay type: biochemical; settings: slide incubated with Erk2
# T2 construct: purchased New England Biolabs (Beverly, Mass.)
# Method: (§1) To give but one example, most signal transduction networks are composed of numerous kinases and the proteins that they phosphorylate. Protein microarrays offer an ideal system for the rapid and parallel identification of the substrates of protein kinases. A microarray of proteins can be incubated with a purified kinase in the presence of ATP, and the substrates identified by detecting their phosphorylation. In but one exemplary system, three different kinase/substrate pairs were chosen: cAMP-dependent protein kinase (PKA) and “Kemptide” (a peptide substrate for PKA) (Kemp et al. J. Biol. Chem. 252:4888-4894, 1977; incorporated herein by reference); casein kinase II (CKII) and protein phosphatase inhibitor 2 (I-2) (DePaoli-Roach J. Biol. Chem. 259:12144-12152, 1984; incorporated herein by reference); and p42 MAP kinase (Erk2) and Elk1 (Marais et al. Cell 73:381-393, 1993; incorporated herein by reference). […] Following a three-hour incubation, each slide was quenched with glycine and incubated with a different kinase in the presence of ^33P-γ-ATP (FIG. 3). […]
# (§2) The slide in FIG. 3A was incubated with PKA. […] Since isotopic […] is known to be quantitative, the best substrates in a library of peptides can be readily identified. […]
# (§3) For FIG. 3, the proteins were spotted on BSA-NHS slides using a GMS 417 Arrayer. […] The slides were then ready for further processing (see below). […]
# [3] = tested on: 5-helix (portion of the HIV protein gp41); settings: rank among the three peptides; cited from earlier work
# [4] = molecular target: T3, cAMP-dependent protein kinase (PKA) (Mus musculus, UniProt P05132); assay: kinase substrate screen on BSA-NHS slides with 33P-γ-ATP, PKA; assay type: biochemical; settings: slide incubated with PKA
# T3 construct: purchased New England Biolabs (Beverly, Mass.)
# Method: as §1, §2, §3
# [5] = molecular target: T1, p50 (of the NFκB complex); assay: protein microarray: protein-protein interaction, p50 spots; assay type: binding; settings: probe 0.1 μg/ml
# Source text: Arraying Proteins on Glass Slides.
# Screening for Protein-Protein Interactions.
# [6] = molecular target: T4, casein kinase II (CKII) (Homo sapiens, UniProt P68400); assay: kinase substrate screen on BSA-NHS slides with 33P-γ-ATP, CKII; assay type: biochemical; settings: slide incubated with CKII
# T4 construct: purchased New England Biolabs (Beverly, Mass.)
# Method: as §1, §2, §3
# T4 sequence (P68400 whole entry): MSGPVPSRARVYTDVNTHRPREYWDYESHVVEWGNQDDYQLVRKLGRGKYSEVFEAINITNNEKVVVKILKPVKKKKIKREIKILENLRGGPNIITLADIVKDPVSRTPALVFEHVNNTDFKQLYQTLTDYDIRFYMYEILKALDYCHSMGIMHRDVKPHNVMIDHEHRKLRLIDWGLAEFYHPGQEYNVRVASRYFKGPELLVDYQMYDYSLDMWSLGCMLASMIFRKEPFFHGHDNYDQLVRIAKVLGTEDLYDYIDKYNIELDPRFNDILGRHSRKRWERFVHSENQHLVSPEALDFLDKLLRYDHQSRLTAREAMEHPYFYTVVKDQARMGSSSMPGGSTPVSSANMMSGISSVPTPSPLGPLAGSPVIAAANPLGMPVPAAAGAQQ
# T4 sequence (P67870 whole entry partner): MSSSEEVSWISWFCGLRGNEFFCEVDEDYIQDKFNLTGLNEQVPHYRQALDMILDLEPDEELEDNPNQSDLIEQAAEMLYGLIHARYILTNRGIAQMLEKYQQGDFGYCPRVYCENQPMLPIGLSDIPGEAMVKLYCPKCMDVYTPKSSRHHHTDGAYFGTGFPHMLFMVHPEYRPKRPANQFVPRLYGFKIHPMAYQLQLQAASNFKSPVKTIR
# FKBP12, sequence (P62942 whole entry): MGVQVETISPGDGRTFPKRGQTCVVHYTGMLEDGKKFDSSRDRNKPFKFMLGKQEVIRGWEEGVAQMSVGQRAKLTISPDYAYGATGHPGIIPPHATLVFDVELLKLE
# T2 sequence (P63085 2-358 limits assumed): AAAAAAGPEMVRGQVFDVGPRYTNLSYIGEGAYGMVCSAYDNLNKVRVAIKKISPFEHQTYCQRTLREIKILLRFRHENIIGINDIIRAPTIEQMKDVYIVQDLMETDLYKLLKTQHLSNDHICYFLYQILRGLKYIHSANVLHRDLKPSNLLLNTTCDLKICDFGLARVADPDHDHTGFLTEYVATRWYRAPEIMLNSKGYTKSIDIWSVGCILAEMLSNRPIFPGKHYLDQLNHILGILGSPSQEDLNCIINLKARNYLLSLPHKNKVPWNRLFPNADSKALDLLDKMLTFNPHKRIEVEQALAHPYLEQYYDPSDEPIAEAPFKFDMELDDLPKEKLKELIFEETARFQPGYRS
molecule,measurement,setting,value
COc1ccc(CC[C@@H](OC(=O)[C@@H]2CCCCN2C(=O)Cc2ccccc2)c2cccc(OCC(=O)O)c2)cc1OC [Compound 3c],Kd,[1],2600 nM
Elk1: protein substrate of p42 MAP kinase (Erk2),phosphorylation of spotted substrate,[2],phosphorylated
"GGHTTWMEADREINNYTSLIHSLIEESQNQQEKNEQELL [JN-DCC2, peptide ligand for 5-helix]",relative affinity for 5-helix,[3],lowest affinity
"GGHTTWMELDREINNYTSLIHSLIEESQNQQEKNEQELL [JN-DCC1, peptide ligand for 5-helix]",relative affinity for 5-helix,[3],second highest affinity
"GGHTTWMEWDREINNYTSLIHSLIEESQNQQEKNEQELLGGHHHHHH [Compound C37-H6, peptide ligand for 5-helix]",relative affinity for 5-helix,[3],highest affinity
LRRASLG [Kemptide],phosphorylation of spotted substrate,[4],phosphorylated
B1,"localization of Cy3 fluorescence on array of protein G, p50 and GST-FRB",[5],localized to the p50-containing spots
B2,phosphorylation of spotted substrate,[6],phosphorylated
